How the values were obtained:
DNA and RNA viruses = conditions: cited from earlier work
L1210 leukemia = conditions: mouse, in vivo; cited from earlier work
[1] = Intracellular phosphorylation (SAX-HPLC); format: cell-based
CEM-V cells = assay: Growth inhibition of normal, uninfected cells (HIV test); format: cell-based; conditions: Homo sapiens, 168 h
Method: (§1) Compound 8 was evaluated by the National Cancer Institute for in vitro activity against human immunodeficiency virus (HIV: cell line:CEM-V). In this test the compound was screened using human "host" cells with and without virus. The test is conducted for seven days (during which time infected, non-drug treated control cells are largely or totally destroyed by the virus), and then the number of remaining viable cells are determined. […] A therapeutic index (TI) can be calculated as the IC/EC ratio.

[2] = test system: human immunodeficiency virus; assay: In vitro activity against HIV, viral cytopathic effect; format: cell-based
Method: as §1

WI-L2 adenosine kinase = target: T1, WI-L2 adenosine kinase (Homo sapiens, UniProt P55263); assay: Adenosine kinase inhibition (filter binding assay); format: biochemical; conditions: decrease in rate of [14C]AMP formation from [14C]adenosine
T1 construct: added to the cell-free WI-L2 lysate to give 5 μM final assay concentration; endogenous in cells; host or cells: WI-L2 B lymphoblast cells (cell-free lysate)
T1 sequence (P55263 whole entry): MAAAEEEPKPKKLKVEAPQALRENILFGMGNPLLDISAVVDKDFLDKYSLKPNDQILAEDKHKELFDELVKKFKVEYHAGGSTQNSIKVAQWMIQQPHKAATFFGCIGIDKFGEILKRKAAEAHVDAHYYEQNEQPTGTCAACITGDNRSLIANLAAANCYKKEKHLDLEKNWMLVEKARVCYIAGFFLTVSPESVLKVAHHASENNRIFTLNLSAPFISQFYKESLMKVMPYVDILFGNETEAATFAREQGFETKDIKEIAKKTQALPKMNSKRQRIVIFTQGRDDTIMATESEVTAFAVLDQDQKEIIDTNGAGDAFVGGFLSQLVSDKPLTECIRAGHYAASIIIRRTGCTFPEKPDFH

[3] = Anomerization in aqueous solution (reverse-phase HPLC); format: physicochemical; conditions: buffered, 37° C., 9 h, no added protein
Method: This would be expected where the rate of anomerization is slow compared to the rate of deamination.
The compounds of the invention are capable of crossing the cell membrane, and activated to the 5'-phosphate, thus causing the inhibition of the de novo purine biosynthesis.
HPLC Analysis: Sample components were separated with an LKB model 2150 gradient HPLC system at ambient temperature on an Altex Ultrashere-ODS reverse phase column (Beckman) developed with a linear gradient of buffer A (10 mM KPO4 ', pH 3.83) to 20% component B (60% aqueous CH3 CN) at a combined flow rate of 1.0 mL/min over 15 min. Ultraviolet (UV) absorbance was monitored with an LKB model 2140 diode array detector. Inhibition of de novo purine biosynthesis: WI-L2 or adenosine kinase-deficient cells were preincubated at 37° C. with drug for various time periods prior to labeling with [^14 C]formate. Enzyme Assays: Adenosine kinase inhibition studies were accomplished by the filter binding assay method. Inhibition studies were done at 37° C. with an assay mixture containing 4 mM ATP, 1.5 mM MgCl2, 5 or 10 μM [8-^14 C] adenosine (50 mCi/mmol) and 100 mM Tris-maleate, pH 5.5. To prevent the enzymatic breakdown of adenosine, erythro-9-(2-hydroxy-3-nonyl)adenine (EHNA) was added to the cell-free WI-L2 lysate to give 5 μM final assay concentration. The assay was started by the addition of protein. The amount of enzyme, time of assay and sampling volume were adjusted to give acceptable conversion of [8-^14 C] adenosine to [8-^14 C]AMP. Each DE-81 filter was spotted with a constant sampling volume and immersed in H 2 O (4 L) to terminate the reaction. Filters were washed three times with H2 O (4 L) and once with EtOH (100 mL). Dry filters were placed in scintillation vials and radioactivity was counted with 10 mL toluene-based scintillation cocktail.

in vivo = conditions: mouse, ip
[4] = test system: Herpes 2, parainfluenza 3 and Vaccinia; format: cell-based; conditions: tested in parallel with ARPP (8)

Q: Which results are given for `Nc1ncnc2c(N[C@@H]3O[C@H](CO)[C@@H](O)[C@H]3O)ncnc12` [Compound 8, 4-Amino-8-(β-D-ribofuranosylamino)pyrimido[5,4-d]pyrimidine, reference compound]?
A: antiviral activity in cell culture (cited) (DNA and RNA viruses): antiviral activity for DNA and RNA viruses in cell culture by inhibiting viral protein synthesis; growth of L1210 leukemia in mice (cited) (L1210 leukemia): inhibits the growth of L1210 leukemia in mice; intracellular phosphate formation [1]: formation of intracellular ARPP 5'-monophosphate but no higher phosphate analogues; IC50 (CEM-V cells; read-out: IC50 (50% growth inhibition), seven days): 1950 nM; IC90 (CEM-V cells; seven days): 6600 nM; EC50 ([2]; Human immunodeficiency virus 1, 168 h, read-out: EC50 (50% reduction of viral cytopathic effect)): 95.1 nM; EC90 ([2]; Human immunodeficiency virus 1, 168 h, HIV, CEM-V cells, seven days, read-out: EC90 (90% reduction of viral cytopathic effect)): 768 nM; therapeutic index at 50% (IC/EC ratio) ([2]; IC50/EC50, HIV, CEM-V, 10080 min): 2.05×10^1; therapeutic index at 90% (IC/EC ratio) ([2]; IC90/EC90, HIV, CEM-V, 10080 min): 8.60×10^0

Q: With `COc1ncnc2c(N[C@@H]3O[C@H](CO)[C@@H](O)[C@H]3O)ncnc12` [Compound 14, 4-Methoxy-8-(β-D-ribofuranosylamino)pyrimido[5,4-d]pyrimidine] as the compound, how does the “direct inhibition of adenosine kinase” value (WI-L2 adenosine kinase) read?
A: Direct inhibition

Q: And the “21 (anomeric mixture) formed from compound 14” value [3]?
A: 0.42%

Q: What about the “α-anomer 17 formed from compound 14” value [3] of the same compound?
A: 1.35%

Q: What about the MTD (in vivo) of the same compound?
A: 62 mg/kg

Q: What about the “Antiviral activity in cell culture” value [4] of the same compound?
A: antiviral activity

Source: patent US5041542A, “Substituted pyrimido[5,4-d]pyrimidine nucleosides” (Nucleic Acid Research Institute, priority 1988, dated 1991)
